# PubChem BioAssay (NCI)
#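 All cell lines were grown in 96-well plates and treated with compound for 48 hours. TGI: total growth inhibition.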
# Assays:
# Test in all cases: NCI-60 cell line screen, 48 h
# MOLT-4 leukemia = tested on: MOLT-4 leukemia
# TK-10 renal = tested on: TK-10 renal
# SNB-19 CNS = tested on: SNB-19 CNS
# SK-MEL-28 melanoma = tested on: SK-MEL-28 melanoma
# UACC-62 melanoma = tested on: UACC-62 melanoma
# OVCAR-3 ovarian = tested on: OVCAR-3 ovarian
# SNB-75 CNS = tested on: SNB-75 CNS
# HOP-92 NSCLC = tested on: HOP-92 NSCLC
# T-47D breast = tested on: T-47D breast
# DU-145 prostate = tested on: DU-145 prostate
SMILES,TGI (MOLT-4 leukemia),TGI (TK-10 renal),TGI (SNB-19 CNS),TGI (SK-MEL-28 melanoma),TGI (UACC-62 melanoma),TGI (OVCAR-3 ovarian),TGI (SNB-75 CNS),TGI (HOP-92 NSCLC),TGI (T-47D breast),TGI (DU-145 prostate)
O=C(Nc1ccccn1)c1cc2c(cc1Cl)Sc1nccn1S2(=O)=O,> 100 µM,> 100 µM,> 100 µM,> 100 µM,> 100 µM,> 100 µM,> 100 µM,> 100 µM,73.6 µM,–
COc1ccc(-c2cc(-c3ccncc3)nc(N)c2-c2ccc(F)cc2)cc1,> 100 µM,> 100 µM,> 100 µM,–,> 100 µM,> 100 µM,> 100 µM,> 100 µM,> 100 µM,–
COC(=O)CCC(=O)c1ccc2c(c1)CC1(Cc3ccccc3C1)C2,52.6 µM,> 100 µM,–,–,> 100 µM,> 100 µM,–,> 100 µM,> 100 µM,–
Cc1cccc2c1CC1(Cc3c(C)cccc3C1=O)C2=O,> 100 µM,> 100 µM,> 100 µM,> 100 µM,–,> 100 µM,> 100 µM,> 100 µM,> 100 µM,> 100 µM
O=c1n(CC2CO2)c2ccccc2n1CC1CS1 (centres undefined),> 100 µM,> 100 µM,> 100 µM,> 100 µM,> 100 µM,> 100 µM,–,> 100 µM,–,–
O=[N+]([O-])c1cnccc1-n1nnc2ccccc21,> 75.7 µM,–,> 100 µM,48.4 µM,33.4 µM,> 31.6 µM,54.1 µM,> 71.1 µM,–,–
CSc1nc(NC2OC(CO)C(O)C(O)C2O)c(N)c(=O)[nH]1 (centres undefined),> 100 µM,–,> 100 µM,> 100 µM,> 100 µM,> 100 µM,> 100 µM,> 100 µM,–,–
FC(F)(F)c1ccc(N=NN2CCCC2)cc1,> 100 µM,> 100 µM,> 100 µM,> 100 µM,> 100 µM,> 100 µM,–,> 100 µM,> 100 µM,> 100 µM
COC1=C2C[C@](OC)(C#CC=CC#CC2O)CC1(C)C (some centres undefined),> 100 µM,> 100 µM,> 100 µM,> 100 µM,> 100 µM,> 100 µM,> 100 µM,–,> 100 µM,> 100 µM
O=c1oc2ccc([N+](=O)[O-])cc2cc1-c1csc(-c2ccccc2)n1,> 100 µM,> 100 µM,> 100 µM,> 100 µM,> 100 µM,–,> 100 µM,> 100 µM,> 100 µM,> 100 µM
CCOC1=NC(C(F)(F)F)(C(F)(F)F)N=C(/N=C(/N)N(C)C(C(C)C)P(=O)(OC(C)C)OC(C)C)O1 (centres undefined),51.4 µM,> 100 µM,> 100 µM,> 100 µM,> 100 µM,> 100 µM,> 100 µM,–,> 100 µM,> 100 µM
COC(=O)C(Cc1cc(OC)c(OC)c(OC)c1)(NC(=O)c1ccccc1)P(=O)(OC)OC (centres undefined),> 100 µM,> 100 µM,> 100 µM,> 100 µM,> 100 µM,–,> 100 µM,> 100 µM,–,–
COc1ccc(/C=C2/C(=O)C(c3ccccc3)N(c3ccccc3)C2=O)cc1OC (centres undefined),> 10 µM,> 10 µM,> 10 µM,> 10 µM,> 10 µM,> 10 µM,–,> 10 µM,> 10 µM,> 10 µM
CC(=O)Nc1ccc(C(=O)NN2C(=O)C(Cl)C2/C=C/c2ccccc2)cc1 (centres undefined),> 100 µM,> 100 µM,> 100 µM,> 100 µM,> 100 µM,> 100 µM,> 100 µM,> 100 µM,–,–
ClC1(Cl)C2CCOC21n1cnc2ccccc21 (centres undefined),> 100 µM,–,> 100 µM,> 100 µM,> 100 µM,> 100 µM,> 100 µM,–,> 100 µM,> 100 µM
O=C1CSC2(CC(/C=C/c3ccccc3[N+](=O)[O-])=NN2c2cccc(S(=O)(=O)O)c2)N1c1nc2ccccc2s1 (centres undefined),52.4 µM,29.4 µM,35.1 µM,> 75 µM,29 µM,–,28.8 µM,56.7 µM,30.6 µM,27.5 µM
CC(=O)Nc1ccc2cc3c(nc2n1)c1cccnc1n3S(=O)(=O)c1ccccc1,> 100 µM,> 100 µM,> 100 µM,> 100 µM,> 100 µM,> 100 µM,> 100 µM,> 100 µM,–,–
C=C(C)[C@H]1C=C[C@@H](OC(C)=O)[C@@]2(COC(C)=O)[C@H](OC(=O)CCC)[C@H]3[C@@H](OC(C)=O)[C@@H](C)C[C@]3(O)C(=O)[C@@](C)(OC(C)=O)[C@H]12,> 100 µM,> 100 µM,> 100 µM,> 100 µM,> 100 µM,–,> 100 µM,69.8 µM,89.7 µM,–
COc1ccc(/C=C2\NC(=S)N(CN3CCOCC3)C2=O)cc1,> 100 µM,> 100 µM,> 100 µM,> 100 µM,> 100 µM,> 100 µM,> 100 µM,> 100 µM,–,> 100 µM
COc1ccc(C2=Nn3c(C)nnc3S/C2=C\c2ccc(-c3ccc([N+](=O)[O-])cc3)o2)cc1,18 µM,34.3 µM,38.7 µM,–,28.3 µM,33 µM,–,62.2 µM,> 100 µM,27.3 µM
O=C(CCCN1CCC(Nc2ccc(F)cc2)(c2nnnn2C2CCCCC2)CC1)c1ccc(F)cc1,> 100 µM,29.4 µM,36 µM,30.5 µM,11.2 µM,31.8 µM,24.7 µM,–,–,28.4 µM
O=C(O)c1cc2sc(C(=O)O)cc2s1,> 100 µM,> 100 µM,> 100 µM,–,> 100 µM,> 100 µM,> 100 µM,> 100 µM,–,–
CCOC(=O)C(C(=O)OCC)C(=S)NC1OC(COC(C)=O)C(OC(C)=O)C(OC(C)=O)C1OC(C)=O (centres undefined),> 100 µM,–,> 100 µM,> 100 µM,> 100 µM,> 100 µM,–,> 100 µM,> 100 µM,> 100 µM
COc1cc2oc(=O)cc(C)c2c(OC)c1OC,> 100 µM,> 100 µM,> 100 µM,> 100 µM,> 100 µM,> 100 µM,> 100 µM,–,–,> 100 µM
